Target: aldosterone synthase (CYP11B2) (Macaca fascicularis, UniProt A0A2K5UPL9)
Test: aldosterone synthase inhibition assay
Assay type: biochemical, cynomolgus monkey
Settings: cynomolgus adrenal gland mitochondria, 2 μM corticosterone, aldosterone quantified by mass spectrometry
Procedure, shortened: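 Cynomolgus adrenal mitochondria ([…]) used as CYP11B2 source with 2 μM corticosterone in 100 mM potassium phosphate pH 7.4, 1% DMSO; reaction started with 1 mM NADPH, run 60-90 min at 37° C. Aldosterone measured by mass spectrometry; IC50 from 4-parameter logistic fit, no-NADPH blank as 0%.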

Sequence of aldosterone synthase (CYP11B2) (A0A2K5UPL9 1-503): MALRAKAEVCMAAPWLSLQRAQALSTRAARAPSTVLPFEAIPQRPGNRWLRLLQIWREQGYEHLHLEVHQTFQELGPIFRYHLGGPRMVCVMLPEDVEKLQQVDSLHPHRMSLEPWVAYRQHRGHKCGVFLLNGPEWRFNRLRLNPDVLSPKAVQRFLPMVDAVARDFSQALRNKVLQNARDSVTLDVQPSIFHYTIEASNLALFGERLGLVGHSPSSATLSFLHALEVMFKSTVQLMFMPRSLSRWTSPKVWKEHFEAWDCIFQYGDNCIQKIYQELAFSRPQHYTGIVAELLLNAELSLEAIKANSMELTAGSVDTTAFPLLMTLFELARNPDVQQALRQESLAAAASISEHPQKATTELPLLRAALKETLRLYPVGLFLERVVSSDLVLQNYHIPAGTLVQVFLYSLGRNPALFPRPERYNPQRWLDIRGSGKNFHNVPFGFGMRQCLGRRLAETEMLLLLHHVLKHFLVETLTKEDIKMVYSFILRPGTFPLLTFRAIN

| IC50 [nM] | SMILES |
| --- | --- |
| 470 | CCS(=O)(=O)NC1COCc2c(-c3ccc4c(c3)C(F)(F)CCO4)cncc21 (single isomer, unassigned) [Compound 144, Ethanesulfonic acid [8-(4,4-difluoro-chroman-6-yl)-3,4-dihydro-1H-pyrano[4,3-c]pyridin-4-yl]-amide] |
| 40.9 | OC1c2cncc(-c3ccc4c(c3)COCCO4)c2COC12CC2 (single isomer, unassigned) [Compound 112, 8-(3,5-dihydro-2H-1,4-benzo[e][1,4]dioxepin-7-yl)spiro[1,4-dihydropyrano[4,3-c]pyridine-3,1′-cyclopropane]-4-ol] |
| 139 | CCC(=O)NC1COCc2c(-c3ccc4c(C)n[nH]c4c3)cncc21 (single isomer, unassigned) [Compound 62, N-[8-(3-Methyl-1H-indazol-6-yl)-3,4-dihydro-1H-pyrano[4,3-c]pyridin-4-yl]-propionamide] |
| 281 | Cn1ncc2ccc(-c3cncc4c3C(C)(O)COC4)cc21 (single isomer, unassigned) [Compound 180, 4-Methyl-5-(1-methyl-1H-indazol-6-yl)-3,4-dihydro-1H-pyrano[3,4-c]pyridin-4-ol] |
| 10 | O=C1CCc2cc(-c3cncc4c3COCC4O)ccc21 (single isomer, unassigned) [Compound 103, 5-(4-Hydroxy-3,4-dihydro-1H-pyrano[4,3-c]pyridin-8-yl)-indan-1-one] |
| 544 | CC(=O)N1Cc2ccc(-c3cncc4c3COCC4O)cc2C1 (single isomer, unassigned) [Compound 109, 1-[5-(4-Hydroxy-3,4-dihydro-1H-pyrano[4,3-c]pyridin-8-yl)-1,3-dihydro-isoindol-2-yl]-ethanone] |
| 195 | OC1COCc2c(-c3ccc4cc[nH]c4c3)cncc21 (single isomer, unassigned) [Compound 21, 8-(1H-Indol-6-yl)-3,4-dihydro-1H-pyrano[4,3-c]pyridin-4-ol] |
| 160 | OC1COCc2c(-c3ccc4[nH]ccc4c3)cncc21 (single isomer, unassigned) [Compound 31, 8-(1H-Indol-5-yl)-3,4-dihydro-1H-pyrano[4,3-c]pyridin-4-ol] |
| 12000 | CC1(O)CCOc2ccc(-c3cncc4c3COCC4O)cc21 (single isomer, unassigned) [Compound 140, 8-(4-Hydroxy-4-methyl-chroman-6-yl)-3,4-dihydro-1H-pyrano[4,3-c]pyridin-4-ol] |
| 40.5 | OC1COCc2c(-c3ccc4scnc4c3)cncc21 (single isomer, unassigned) [Compound 33, 8-Benzothiazol-5-yl-3,4-dihydro-1H-pyrano[4,3-c]pyridin-4-ol] |
| 48 | Cn1ncc2c1CC(c1cncc3c1COCC3O)CC2 (single isomer, unassigned) [Compound 191, 8-(1-Methyl-4,5,6,7-tetrahydro-1H-indazol-6-yl)-3,4-dihydro-1H-pyrano[4,3-c]pyridin-4-ol] |
| 480 | OC1COCc2c(-c3ccc4cn[nH]c4c3)cncc21 (single isomer, unassigned) [Compound 24, 8-(1H-Indazol-6-yl)-3,4-dihydro-1H-pyrano[4,3-c]pyridin-4-ol] |
| 341 | CCC(=O)NC1COCc2c(-c3ccc4c(c3)C(O)CCO4)cncc21 (single isomer, unassigned) [Compound 135, N-[8-(4-Hydroxy-chroman-6-yl)-3,4-dihydro-1H-pyrano[4,3-c]pyridin-4-yl]-propionamide] |
| 6.7 | OC1COCc2c(-c3ccc4c(Cl)n[nH]c4c3)cncc21 (single isomer, unassigned) [Compound 127, 8-(3-Chloro-1H-indazol-6-yl)-3,4-dihydro-1H-pyrano[4,3-c]pyridin-4-ol] |
| 224 | Cn1ncc2ccc(-c3cncc4c3C(O)COC4)cc21 (single isomer, unassigned) [Compound 165, 5-(1-Methyl-1H-indazol-6-yl)-3,4-dihydro-1H-pyrano[3,4-c]pyridin-4-ol] |
| 84.6 | CCS(=O)(=O)NC1COCc2c(-c3ccc4[nH]nc(C)c4c3)cncc21 (single isomer, unassigned) [Compound 69, Ethanesulfonic acid [8-(3-methyl-1H-indazol-5-yl)-3,4-dihydro-1H-pyrano[4,3-c]pyridin-4-yl]-amide] |
| 518 | CCC(=O)NC1COCc2c(-c3ccc4c(c3)C(O)CCO4)cncc21 (single isomer, unassigned) [Compound 132, N-[8-(4-Hydroxy-chroman-6-yl)-3,4-dihydro-1H-pyrano[4,3-c]pyridin-4-yl]-propionamide] |
| 10.2 | Cn1nc(F)c2ccc(-c3cncc4c3COCC4(C)O)cc21 (single isomer, unassigned) [Compound 172, 8-(3-Fluoro-1-methyl-1H-indazol-6-yl)-4-methyl-3,4-dihydro-1H-pyrano[4,3-c]pyridin-4-ol] |

| IC50 [nM] | SMILES |
| --- | --- |
| 50.2 | CC(=O)NC1COCc2c(-c3ccc4c(c3)CCC4=O)cncc21 (single isomer, unassigned) [Compound 152, N-[8-(1-Oxo-indan-5-yl)-3,4-dihydro-1H-pyrano[4,3-c]pyridin-4-yl]-acetamide] |
| 36.2 | CCC(=O)NC1COCc2c(-c3ccc4[nH]nc(C)c4c3)cncc21 (single isomer, unassigned) [Compound 61, N-[8-(3-Methyl-1H-indazol-5-yl)-3,4-dihydro-1H-pyrano[4,3-c]pyridin-4-yl]-propionamide] |
| 28.9 | O=C1CCc2cc(-c3cncc4c3COCC4O)ccc2N1 (single isomer, unassigned) [Compound 1, 6-(4-Hydroxy-3,4-dihydro-1H-pyrano[4,3-c]pyridin-8-yl)-3,4-dihydro-1H-quinolin-2-one] |
| 7.8 | Cn1nc(F)c2ccc(-c3cncc4c3COCC4O)cc21 (single isomer, unassigned) [Compound 15, 8-(3-Fluoro-1-methyl-1H-indazol-6-yl)-3,4-dihydro-1H-pyrano[4,3-c]pyridin-4-ol] |
| 3800 | CCC(=O)NC1COCc2c(-c3ccc4cnn(C)c4c3)cncc21 (single isomer, unassigned) [Compound 155, N-[8-(1-Methyl-1H-indazol-6-yl)-3,4-dihydro-1H-pyrano[4,3-c]pyridin-4-yl]-propionamide] |
| 21 | Cn1nnc2ccc(-c3cncc4c3COCC4O)cc21 (single isomer, unassigned) [Compound 188, 8-(3-Methyl-3H-benzotriazol-5-yl)-3,4-dihydro-1H-pyrano[4,3-c]pyridin-4-ol] |
| 101 | O=C1CCc2cc(-c3cncc4c3COCC4O)ccc2N1 (single isomer, unassigned) [Compound 2, 6-(4-Hydroxy-3,4-dihydro-1H-pyrano[4,3-c]pyridin-8-yl)-3,4-dihydro-1H-quinolin-2-one] |
| 73 | Cc1ncc2ccc(-c3cncc4c3COC3(CC3)C4O)cn12 (single isomer, unassigned) [Compound 89, 8-(3-methylimidazo[1,5-a]pyridin-6-yl)spiro[1,4-dihydropyrano[4,3-c]pyridine-3,1′-cyclopropane]-4-ol] |
| 25.6 | CC(=O)NC1COCc2c(-c3ccc4cnn(C)c4c3)cncc21 (single isomer, unassigned) [Compound 74, N-[8-(1-Methyl-1H-indazol-6-yl)-3,4-dihydro-1H-pyrano[4,3-c]pyridin-4-yl]-acetamide] |
| 367 | Cn1nc(C(F)(F)F)cc1-c1cncc2c1COCC2O (single isomer, unassigned) [Compound 42, 8-(2-Methyl-5-trifluoromethyl-2H-pyrazol-3-yl)-3,4-dihydro-1H-pyrano[4,3-c]pyridin-4-ol] |
| 330 | CCS(=O)(=O)NC1COCc2c(-c3ccc4c(c3)COCC4(F)F)cncc21 (single isomer, unassigned) [Compound 196, Ethanesulfonic acid [8-(4,4-difluoro-isochroman-7-yl)-3,4-dihydro-1H-pyrano[4,3-c]pyridin-4-yl]-amide] |
| 279 | OC1COCc2c(-c3ccc4c(c3)COCC4(F)F)cncc21 (single isomer, unassigned) [Compound 200, 8-(4,4-Difluoro-isochroman-7-yl)-3,4-dihydro-1H-pyrano[4,3-c]pyridin-4-ol] |
| 15.9 | CCS(=O)(=O)NC1COCc2c(-c3ccc4c(F)nn(C)c4c3)cncc21 (single isomer, unassigned) [Compound 68, Ethanesulfonic acid [8-(3-fluoro-1-methyl-1H-indazol-6-yl)-3,4-dihydro-1H-pyrano[4,3-c]pyridin-4-yl]-amide] |
| 205 | Cc1nnc2ccc(-c3cncc4c3COCC4O)cn12 (single isomer, unassigned) [Compound 97, 8-(3-Methyl-[1,2,4]triazolo[4,3-a]pyridin-6-yl)-3,4-dihydro-1H-pyrano[4,3-c]pyridin-4-ol] |
| 79.9 | OC1COCc2c(-c3ccc4c(c3)COCCO4)cncc21 (single isomer, unassigned) [Compound 107, 8-(2,3-Dihydro-5H-benzo[e][1,4]dioxepin-7-yl)-3,4-dihydro-1H-pyrano[4,3-c]pyridin-4-ol] |
| 8 | Cn1ncc2ccc(-c3cncc4c3COC3(CC3)C4O)cc21 (single isomer, unassigned) [Compound 17, 8-(1-methylindazol-6-yl)spiro[1,4-dihydropyrano[4,3-c]pyridine-3,1′-cyclopropane]-4-ol] |
| 103 | O=C1CCCc2cc(-c3cncc4c3COCC4O)ccc21 (single isomer, unassigned) [Compound 117, 6-(4-Hydroxy-3,4-dihydro-1H-pyrano[4,3-c]pyridin-8-yl)-3,4-dihydro-2H-naphthalen-1-one] |

| SMILES | IC50 [nM] |
| --- | --- |
| N#Cc1ccc(-c2cncc3c2COCC3O)cc1Cl (single isomer, unassigned) [Compound 7, 2-Chloro-4-(4-hydroxy-3,4-dihydro-1H-pyrano[4,3-c]pyridin-8-yl)-benzonitrile] | 6.1 |

— US9890171B2, “Aldosterone synthase inhibitors” (Boehringer Ingelheim International GmbH, priority 2014, dated 2018)
